In patent publication US20240058464A1 (Fortis Therapeutics, Inc., priority 2021, published 2024):

Test system: CD46 expression
Assay: CD46 expression by RNA-sequencing in unpaired pre-treatment and post-treatment tumor biopsies
Assay type: in vivo, human
[1] = Breast Cancer, Post minus Pre, unpaired biopsies, log2-transformed counts
[2] = Breast Cancer, post- vs pre-treatment unpaired biopsies
[3] = Breast Cancer, post-treatment biopsies, unpaired, RNA-seq log2-transformed normalized counts
[4] = Colorectal Cancer, Post minus Pre, unpaired biopsies, log2-transformed counts
[5] = Colorectal Cancer, post- vs pre-treatment unpaired biopsies
[6] = Colorectal Cancer, post-treatment biopsies, unpaired, RNA-seq log2-transformed normalized counts
[7] = Non-Small Cell Lung Cancer, Post minus Pre, unpaired biopsies, log2-transformed counts
[8] = Non-Small Cell Lung Cancer, post- vs pre-treatment unpaired biopsies
[9] = Non-Small Cell Lung Cancer, post-treatment biopsies, unpaired, RNA-seq log2-transformed normalized counts
[10] = Bladder Cancer, post minus pre, unpaired biopsies
[11] = Bladder Cancer, post vs pre, unpaired biopsies
[12] = Bladder Cancer, post-treatment biopsies, log2-transformed RNA-seq counts
[13] = Sarcoma, Post minus Pre, unpaired biopsies, log2-transformed counts
[14] = Sarcoma, post- vs pre-treatment unpaired biopsies
[15] = Sarcoma, post-treatment biopsies, unpaired, RNA-seq log2-transformed normalized counts

Structure (SMILES): CS(=O)(=O)CCNCc1ccc(-c2ccc3ncnc(Nc4ccc(OCc5cccc(F)c5)c(Cl)c4)c3c2)o1 [lapatinib]
- CD46 expression diff [1]: −0.08
- CD46 expression Percentage change [2]: −1.2%
- CD46 expression Post [3]: 6.22

Structure (SMILES): COc1cc2nccc(Oc3ccc(NC(=O)NC4CC4)c(Cl)c3)c2cc1C(N)=O [lenvatinib]
- CD46 expression diff (Thyroid Cancer, Post minus Pre, unpaired biopsies, log2-transformed counts): −0.02
- CD46 expression Percentage change (Thyroid Cancer, post- vs pre-treatment unpaired biopsies): −0.4%
- CD46 expression Post (Thyroid Cancer, post-treatment biopsies, unpaired, RNA-seq log2-transformed normalized counts): 5.82

Structure (SMILES): N[C@@H](Cc1cc(I)c(Oc2cc(I)c(O)c(I)c2)c(I)c1)C(=O)O [levothyroxine]
- CD46 expression diff (Non-Small Cell Lung Cancer, post minus pre, unpaired biopsies): −0.17
- CD46 expression Percentage change (Non-Small Cell Lung Cancer, post vs pre, unpaired biopsies): −2.9%
- CD46 expression Post (Non-Small Cell Lung Cancer, post-treatment biopsies, log2-transformed RNA-seq counts): 5.87

Structure (SMILES): O=S(=O)(O)CCS [mesna]
- CD46 expression diff (Sarcoma, post minus pre, unpaired biopsies): −0.16
- CD46 expression Percentage change (Sarcoma, post vs pre, unpaired biopsies): −3.2%
- CD46 expression Post (Sarcoma, post-treatment biopsies, log2-transformed RNA-seq counts): 4.88

Structure (SMILES): CN(C)C(=N)N=C(N)N [metformin]
- CD46 expression diff [4]: 0.27
- CD46 expression Percentage change [5]: 4.2%
- CD46 expression Post [6]: 6.70
- CD46 expression diff [7]: 0.03
- CD46 expression Percentage change [8]: 0.5%
- CD46 expression Post [9]: 6.07

Structure (SMILES): CN(Cc1cnc2nc(N)nc(N)c2n1)c1ccc(C(=O)N[C@@H](CCC(=O)O)C(=O)O)cc1 [methotrexate]
- CD46 expression diff [10]: −0.25
- CD46 expression Percentage change [11]: −4.0%
- CD46 expression Post [12]: 5.88
- CD46 expression diff [1]: 0.07
- CD46 expression Percentage change [2]: 1.2%
- CD46 expression Post [3]: 6.32

Structure (SMILES): C[C@H]1C[C@@H]2[C@H]([C@@H](O)C[C@@]3(C)[C@H]2CC[C@]3(O)C(=O)CO)[C@@]2(C)C=CC(=O)C=C12 [methylprednisolone]
- CD46 expression diff [1]: 0.31
- CD46 expression Percentage change [2]: 5.0%
- CD46 expression Post [3]: 6.49
- CD46 expression diff [7]: −0.04
- CD46 expression Percentage change [8]: −0.6%
- CD46 expression Post [9]: 6.16

Structure (SMILES): CO[C@@]12[C@H](COC(N)=O)C3=C(C(=O)C(C)=C(N)C3=O)N1C[C@@H]1N[C@@H]12 [mitomycin]
- CD46 expression diff [4]: 0.23
- CD46 expression Percentage change [5]: 3.9%
- CD46 expression Post [6]: 5.93

Structure (SMILES): NC(=O)c1cccc2cn(-c3ccc([C@@H]4CCCNC4)cc3)nc12 [niraparib]
- CD46 expression Percentage change (in vivo): 0.1%
- CD46 expression Post (in vivo): 5.72
- CD46 expression diff (in vivo): 0.00

Structure (SMILES): C[C@@H](O)[C@@H]1NC(=O)[C@H](CCCCN)NC(=O)[C@@H](Cc2c[nH]c3ccccc23)NC(=O)[C@H](Cc2ccccc2)NC(=O)[C@@H](NC(=O)[C@H](N)Cc2ccccc2)CSSC[C@@H](C(=O)N[C@H](CO)[C@@H](C)O)NC1=O [octreotide]
- CD46 expression diff (Endocrine Tumor, Post minus Pre, unpaired biopsies, log2-transformed counts): −0.05
- CD46 expression Percentage change (Endocrine Tumor, post- vs pre-treatment unpaired biopsies): −0.9%
- CD46 expression Post (Endocrine Tumor, post-treatment biopsies, unpaired, RNA-seq log2-transformed normalized counts): 5.59

Structure (SMILES): Cc1ccc(Nc2nccc(N(C)c3ccc4c(C)n(C)nc4c3)n2)cc1S(N)(=O)=O [pazopanib]
- CD46 expression diff (Clear Cell Renal Cell Carcinoma, post minus pre, unpaired biopsies): −0.22
- CD46 expression Percentage change (Clear Cell Renal Cell Carcinoma, post vs pre, unpaired biopsies): −4.0%
- CD46 expression Post (Clear Cell Renal Cell Carcinoma, post-treatment biopsies, log2-transformed RNA-seq counts): 5.37
- CD46 expression diff [13]: −0.10
- CD46 expression Percentage change [14]: −1.9%
- CD46 expression Post [15]: 5.03

Structure (SMILES): CN(C)C(=O)c1cc2cnc(Nc3ccc(N4CCNCC4)cn3)nc2n1C1CCCC1 [ribociclib]
- CD46 expression diff (Breast Cancer, post minus pre, unpaired biopsies): −0.17
- CD46 expression Percentage change (Breast Cancer, post vs pre, unpaired biopsies): −2.6%
- CD46 expression Post (Breast Cancer, post-treatment biopsies, log2-transformed RNA-seq counts): 6.30

Structure (SMILES): COc1cc2c(cc1O)CCN[C@]21CS[C@@H]2c3c(OC(C)=O)c(C)c4c(c3[C@H](COC1=O)N1[C@@H]2[C@H]2c3c(cc(C)c(OC)c3O)C[C@@H]([C@@H]1O)N2C)OCO4 [trabectedin]
- CD46 expression diff [13]: 0.00
- CD46 expression Percentage change [14]: −0.1%
- CD46 expression Post [15]: 5.23

Structure (SMILES): CC(=O)Nc1cccc(-n2c(=O)n(C3CC3)c(=O)c3c(Nc4ccc(I)cc4F)n(C)c(=O)c(C)c32)c1 [trametinib]
- CD46 expression diff (Melanoma, Post minus Pre, unpaired biopsies, log2-transformed counts): 0.08
- CD46 expression Percentage change (Melanoma, post- vs pre-treatment unpaired biopsies): 1.4%
- CD46 expression Post (Melanoma, post-treatment biopsies, unpaired, RNA-seq log2-transformed normalized counts): 5.39

Structure (SMILES): CC[C@]1(O)C[C@@H]2CN(CCc3c([nH]c4ccccc34)[C@@](C(=O)OC)(c3cc4c(cc3OC)N(C)[C@H]3[C@@](O)(C(=O)OC)[C@H](OC(C)=O)[C@]5(CC)C=CCN6CC[C@]43[C@@H]65)C2)C1 [vinblastine]
- CD46 expression diff [10]: −0.24
- CD46 expression Percentage change [11]: −3.9%
- CD46 expression Post [12]: 5.89
